Measurements as given in patent US20230096528A1, “Pharmaceutical Composition for Treatment or Prevention of Multiple Inflammatory disorders” (priority 2019, published 2023).

What was measured:
[1] = test system: DSS-induced colitis in mice; test: Dextran sulfate sodium (DSS)-induced colitis in mice (Example 3); type: in vivo
Excerpt: This example provides the results of an in vivo study in a dextran sulfate sodium (DSS)-induced colitis in mice model. Inflammatory bowel diseases (IBD), mainly comprising ulcerative colitis and Crohn's Disease, are complex and multifactorial diseases with unknown etiology. To study human IBD mechanistically, a number of murine models of colitis have been developed. These models are tools to decipher underlying mechanisms of IBD pathogenesis as well as to evaluate potential therapeutics. […] Moreover, many existing IBD-approved drugs have been studied in this model to allow a comparison of new potential drug compounds as compared with existing drugs with approved IBD indications. […] mice were divided into 5 groups of 3-10 mice, provided with standard mouse chow diet ad libitum, and housed up to 5 per cage. Dexamethasone 21-phosphate disodium salt (DMS; Alfa Aesar Catalog #J64083-1G, Lot R02F035) (was used as a positive control. Hemoccult kits were obtained from Beckman (Hemoccult SENSA kit). Dextran sodium sulfate (DSS) reagent grade (MPI Catalog #160110, Lot #6046H, MW 36,000-50,000, CAS 9011-18-1) was supplemented in the water of certain groups to induced IBD-like symptoms. On day −3 treatment began prior to DSS delivery. On day 1 all mice were pre-weighed and given fresh 4-5% DSS in water every day for 5 days and water is then given for the remainder of the study to elicit disease. An additional control group was given water (no DSS) for the duration of the study (10 days). Body weight was measured daily, fecal blood status (hemoccult) was measured 3× per week, fecal consistency 3× per week and general health determined daily. Mice were sacrificed on day 10 and serum obtained for cytokine analysis and colon length and weight determined. There were two control groups of water only and DSS without drug treatment. There were two treatment groups at 69.3 mg/kg (n=10) bid and 23.1 mg/kg bid (n=10).

[2] = test system: healthy mouse; test: Cytokine profile and routes of administration in healthy mouse (Example 6); settings: healthy mice
[3] = test system: diet-induced (DIO) mice; test: Body weight study in diet-induced (DIO) mice (Example 9); type: in vivo, C57BL/6NTac mice; settings: DA 92.4 mg/kg gavage BID, vs vehicle
[4] = test system: mouse model of acute lung injury; test: Second modified acute lung injury plus hyperthermia study (Example 8); settings: for Tolerability of three days of repeat dosing: mouse, in vivo
Procedure: Lung lavage fluid was measured and cytokine analysis. Statistics was one-way ANOVA followed by Tukey's multiple comparison post hoc test for data with normal distribution; Kruskal-Wallis test followed by Dunn's multiple comparison post hoc test for data with skewed distribution; and the ROUT method for identifying outliers. Control or drug administered for 3 days, then LPS at 50 μL of 1 mg/ml delivered intratracheally with a Penn Century needle where a core temperature of 39 C at 24 hours post LPS and then sacrifice to measure lung lavage fluid protein concentration and serum cytokine levels.
The same procedure was used as in Example 7. Starting three days before the induction of lung injury, groups of six CD-1 mice each were treated prophylactically with vehicle or 92.4 mg/kg denatonium acetate (DA) (administered by twice-daily (BID) oral gavage (PO)) or with 3 mg/kg DA (administered by once-daily (QD) intraperitoneal (IP) injection). On Day 0, lung injury was induced by intratracheal instillation with 50 μL of 1 mg/mL bacterial lipopolysaccharide (LPS), and hyperthermia was induced by placing the animals in a 39° C. incubator. On Day 1 (i.e., 24 hours after induction), animals were euthanized and bronchoalveolar lavage fluid (BALF) was collected. The BALF specimens were assessed for cytokine concentrations (using a multiplex bead-based assay), and protein levels, and neutrophil counts (by fluorescence-activated cell sorting (FACS)). Additionally, lungs were collected, fixed, stained with Masson's trichrome, and assessed histologically.

[5] = high-dose DA, no significant difference
[6] = oral 92.4 mg/kg BID, vs vehicle

SMILES: CC(=O)[O-].CC[N+](CC)(CC(=O)Nc1c(C)cccc1C)Cc1ccccc1 [DA, denatonium acetate]
- Body weight at day 10 ([1]; 69.3 mg/kg BID, vs vehicle): significant effect against DSS-induced body weight loss
- Combined fecal score during the study period ([1]; DA treatment): significant main effect
- Fecal consistency score during the study period ([1]; DA treatment): significant main effect
- Fecal occult blood scores during the study period ([1]; DA treatment): significant main effect
- Colon length at day 10 [1, 5]: could counteract DSS-induced decrease
- Colon weight at day 10 [1, 5]: could counteract DSS-induced decrease
- Spleen weight at day 10 ([1]; high-dose DA, no significant effect): trend to counteract DSS-induced spleen weight loss
- Biomarker (cytokine) effects after iv dosing ([2]; iv bolus QD, 1 mg/kg and 3 mg/kg (either iv dose)): no biomarker (cytokine) effects
- Side effects by route of administration ([2]; seen only with iv administration (1 and 3 mg/kg QD)): toxic side effects
- Daily food intake at Day 14 [3]: significantly reduced
- Mice found dead on Day 1 ([4]; 92.4 mg/kg PO group, within 24 h after LPS instillation, also one vehicle-dosed, not attributed to test article): one
- BALF neutrophil counts (by FACS assay) ([4]; IP 3 mg/kg QD): nominal decreases
- BALF protein concentrations ([4]; IP 3 mg/kg QD): nominal (but nonsignificant) changes
- Number of 32 tested BALF cytokines significantly decreased compared to vehicle ([4]; IP 3 mg/kg QD): 10
- Severity of lung pathology (by histological scoring) ([4]; IP 3 mg/kg QD): nominal decreases
- G-CSF concentration in BALF ([4]; IP 3 mg/kg QD, vs vehicle): significant decreases
- IL2 concentration in BALF ([4]; IP 3 mg/kg QD, vs vehicle): significant decreases
- IL-3 concentration in BALF ([4]; IP 3 mg/kg QD, vs vehicle): significant decreases
- IL-4 concentration in BALF ([4]; IP 3 mg/kg QD, vs vehicle): significant decreases
- IL-13 concentration in BALF ([4]; IP 3 mg/kg QD, vs vehicle): significant decreases
- IP-10 concentration in BALF ([4]; IP 3 mg/kg QD, vs vehicle): significant decreases
- M-CSF concentration in BALF ([4]; IP 3 mg/kg QD, vs vehicle): significant decreases
- MCP-1 concentration in BALF ([4]; IP 3 mg/kg QD, vs vehicle): significant decreases
- MIG concentration in BALF ([4]; IP 3 mg/kg QD, vs vehicle): significant decreases
- eotaxin concentration in BALF ([4]; IP 3 mg/kg QD, vs vehicle): significant decreases
- Tolerability of three days of repeat dosing ([4]; ip, 3 mg/kg): well-tolerated
- Tolerability of three days of repeat dosing ([4]; po, 92.4 mg/kg): well-tolerated
- BALF neutrophil counts (by FACS assay) ([4]; oral 92.4 mg/kg BID): nominal decreases
- BALF protein concentrations ([4]; oral 92.4 mg/kg BID): nominal (but nonsignificant) changes
- Number of 32 tested BALF cytokines significantly decreased compared to vehicle ([4]; oral 92.4 mg/kg BID): 7
- Severity of lung pathology (by histological scoring) ([4]; oral 92.4 mg/kg BID): nominal decreases
- IL-2 concentration in BALF [4, 6]: significant decreases
- IL-3 concentration in BALF [4, 6]: significant decreases
- IL-10 concentration in BALF [4, 6]: significant decreases
- IL-13 concentration in BALF [4, 6]: significant decreases
- MCSF concentration in BALF [4, 6]: significant decreases
- MIG concentration in BALF [4, 6]: significant decreases
